# Data from patent US12371453B2, “Polypeptide having antibacterial activity, composition for preventing or treating sepsis comprising same, and antibacterial composition” (priority 2019, dated 2025).
# Read-outs that look alike come from different tables or passages of the source. Square brackets hold non-standard residues; d marks the D form. Peptide text beside a SMILES is read from it.
# How the values were obtained:
# E. coli = type: cell-based
# [1] = LPS binding affinity by Isothermal Titration Calorimeter (ITC); design: species or system E. coli K1
# Text: FPT (ADK 44-54) is denoted by wild type (WT), and peptides in which a point mutation occurred at various sites in WT were manufactured (FP3, FP5, FP6, and FP9). To increase the interaction with LPS in a residue sequence of FP3, peptides were designed based on FP3- and LPS-binding models (FP12-NH2 and FP13-NH2), and peptides were designed by additionally introducing a non-natural amino acid and an amino acid isomer (allomeric D-type amino acid) (allD FP12-NH2, allD FP13-NH2, allD FP-13-9a, allD FP-13-9w, allD FP-13-9k, and allD FP13-NH2 (AcOH)). In addition, an N-terminus PEGylated peptide (PEG-alld FP13-NH2 (AcOH)) was additionally designed, synthesized, and provided by ANYGEN, Co. Ltd. The binding affinity between each of the provided peptides and lipopolysaccharide (LPS) was confirmed through measuring the binding affinity (Kd) using Isothermal Titration Calorimeter (ITC).
# Specifically, a method of analyzing binding affinity (Kd) between a peptide and LPS is as follows.
# Measurement was carried out using a Malvern MicroCal PEAQ-ITC cell instrument, and the following pretreatment was carried out to confirm interaction with LPS. The amount and morphology of a sample cell are 300 μL and coin-shaped, fixed-in-place, respectively; a syringe rotation rate was 1,200 rpm; and a temperature was 30° C., 35° C. or 25° C.
# Before the experiment, LPS and the peptide were previously diluted with PBS, thereby preparing 2 mM LPS and 0.2 mM peptide. 300 μL of the peptide was added into cells in the ITC instrument, which had been washed, and 40 μL of LPS was put into a syringe. After measurement conditions for ITC (temperature, number of injections) were set, the syringe was inserted into the cell, and ITC measurement was started. When the measurement was completed, analysis is performed, and the Kd values of LPS and the peptide were calculated.
# [2] = Calcein dye leakage from liposome mimicking gram-negative bacterial cell membrane; type: biochemical; conditions: calcein-encapsulated liposome
# Protocol: To study an action mechanism for FP12-NH2, FP13-NH2, allD FP12-NH2, and allD FP13-NH2 peptides, the disruption ability of the peptides against liposomes mimicking a bacterial cell membrane and a red blood cell membrane was measured.
# EYPG is an abbreviation for egg yolk L-α-phosphatidyl-DL-glycerol, and EYPC is an abbreviation for egg yolk 1,2-diacyl-sn-glycero-3-phosphocholine. CH is an abbreviation for cholesterol. After dissolving the phospholipids composed according to the content of each component in chloroform, the chloroform was removed using a rotary evaporator, and lyophilization was performed overnight. Afterward, the dried lipid film was dissolved in a Tris-buffer solution, and calcein […]. After repeated freezing and thawing, the calcein-encapsulated liposome was manufactured using an extruder. Subsequently, after an excitation wavelength of a spectrofluorimeter (Shimadzu RF 5301 PC spectrofluorimeter, Japan) was set to 490 nm, and an emission wavelength was set to 520 nm, the peptide was administered to the liposome to measure relative dye leakage, provided that a 100% dye leakage was expressed as fluorescence intensity when 0.010% Triton-X100 was added.
# The upper graphs of FIG. 3 show the % dye leakage for an EYPC/EYPG (7:3, w/w) liposome mimicking bacterial cells, encapsulating a fluorescent dye, calcein, by a peptide according to a peptide concentration. […] The lower graphs of FIG. 3 show the % dye leakage for an EYPC/CH (10:1, w/w) liposome, which is […] mimicking a human red blood, encapsulating a fluorescent dye, calcein, by a peptide according to a peptide concentration.
compound,measurement,setting,value
CC(C)C[C@@H](NC(=O)[C@H](N)CCCCN)C(=O)N[C@H](CCCNC(=N)N)C(=O)N[C@@H](C(=O)N[C@H](CCCCN)C(=O)N[C@H](CC(C)C)C(=O)N[C@H](CCCNC(=N)N)C(=O)N[C@H](CCCNC(=N)N)C(=O)N[C@H](Cc1ccc(O)cc1)C(=O)N[C@H](CC(C)C)C(=O)N[C@H](CCCNC(=N)N)C(N)=O)C(C)C [allD FP13-NH2] (H-[dK][dL][dR][dV][dK][dL][dR][dR][dY][dL][dR]-NH2; N-terminus assumed),MIC50,E. coli,2 µM
same,MIC90,E. coli,4 µM
same,MIC90,E. coli; E. coli + 0.8 uM Chymotrypsin,6(4~8) uM
same,MIC90,E. coli; E. coli + 0.8 uM protease K,6(4~8) uM
same,LPS binding affinity (in words),"[1]; compared with FP1 (wild type, WT)",strong LPS binding affinity
same,Kd,"[1]; peptide binding to LPS, read-out: Kd (calculated by ITC)",4.78 µM
same,"dye leakage, PC/PG (7:3, w/w) liposome mimicking a bacteria cell membrane",[2],high dye leakage
